According to PMC11999280, “Design and screening of novel endosomal escape compounds that enhance functional delivery of oligonucleotides in vitro” (Molecular Therapy. Nucleic Acids, 2025):

Columns and labels:
Type in all cases: cell-based
[1] = tested on: mCherry-GAL9 expressing NCI-H358 cells; experiment: GAL9 recruitment assay, NCI-H358; conditions: calculated mean from >3 independent exp.
Procedure, shortened: (§1)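 Stable mCherry-GAL9 lines; 24 h post-seeding, compound dosed as dose-response. Endpoint: PBS wash, 4% PFA fix (RT), Hoechst 33342 1 μg/mL. Confocal imaging ×20w, GAL9 puncta quantified. N = 3, duplicate wells.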

[2] = tested on: mCherry-GAL9 expressing HepG2 cells; experiment: GAL9 recruitment assay, HepG2; conditions: calculated mean from >3 independent exp.
Procedure, shortened: as §1

[3] = tested on: mCherry-GAL9 expressing 16HBE cells; experiment: GAL9 recruitment assay, 16HBE; conditions: calculated mean from >3 independent exp.
Procedure, shortened: as §1

[4] = tested on: mCherry-GAL9 expressing U2OS cells; experiment: GAL9 recruitment assay, U2OS; conditions: calculated mean from >3 independent exp.
Procedure, shortened: as §1

[5] = tested on: mCherry-GAL9 expressing HEK293 cells; experiment: GAL9 recruitment assay, HEK293; conditions: calculated mean from >3 independent exp.
Procedure, shortened: as §1

[6] = tested on: HeLa_Luc705 cells (pLuc/705 splice-switching reporter); experiment: Functional 705-SSO delivery, luciferase splice-switching assay; conditions: HeLa-Luc705 + 2 µM SSO, mean from >3 independent experiments
Procedure, shortened: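 Splice correction was measured as firefly luciferase luminescence in Triton X-100 lysates taken 24 h after enhancer treatment. Before treatment, the 10,000 cells/well had spent 24 h with 1–2 μM 705-SSO (2′-OMe, phosphorothioate). For comparison, 100–200 nM SSO was lipofected with LF2000.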

[7] = tested on: mCherry-GAL9 expressing HeLa cells; experiment: GAL9 recruitment assay, HeLa; conditions: calculated mean from >3 independent exp.
Procedure, shortened: as §1

[8] = tested on: mCherry-GAL9 expressing SHSY5Y cells; experiment: GAL9 recruitment assay, SHSY5Y; conditions: calculated mean from >3 independent exp.
Procedure, shortened: as §1

[9] = tested on: mCherry-GAL9 expressing HuH7 cells; experiment: GAL9 recruitment assay, HuH7; conditions: calculated mean from >3 independent exp.
Procedure, shortened: as §1

COc1nn(C2CCNCC2)cc1Nc1ncc(F)c(-c2c[nH]c3ccccc23)n1 [EEE23]
Gal9 response compared to reference ([1]; EEE 0.31 µM): 0.013
Gal9 response compared to reference ([1]; EEE 0.62 µM): 0.015
Gal9 response compared to reference ([1]; EEE 1.25 µM): 0.012
Gal9 response compared to reference ([1]; EEE 2.5 µM): 0.017
Gal9 response compared to reference ([1]; EEE 5 µM): 0.017
Gal9 response compared to reference ([1]; EEE 10 µM): 0.021
Gal9 response compared to reference ([2]; EEE 0.31 µM): 0.006
Gal9 response compared to reference ([2]; EEE 0.62 µM): 0.006
Gal9 response compared to reference ([2]; EEE 1.25 µM): 0.007
Gal9 response compared to reference ([2]; EEE 2.5 µM): 0.005
Gal9 response compared to reference ([2]; EEE 5 µM): 0.004
Gal9 response compared to reference ([2]; EEE 10 µM): 0.005
Gal9 response compared to reference ([3]; EEE 0.31 µM): 0.008
Gal9 response compared to reference ([3]; EEE 0.62 µM): 0.010
Gal9 response compared to reference ([3]; EEE 1.25 µM): 0.010
Gal9 response compared to reference ([3]; EEE 2.5 µM): 0.012
Gal9 response compared to reference ([3]; EEE 5 µM): 0.017
Gal9 response compared to reference ([3]; EEE 10 µM): 0.032
Gal9 response compared to reference ([4]; EEE 0.31 µM): 0.011
Gal9 response compared to reference ([4]; EEE 0.62 µM): 0.012
Gal9 response compared to reference ([4]; EEE 1.25 µM): 0.015
Gal9 response compared to reference ([4]; EEE 2.5 µM): 0.015
Gal9 response compared to reference ([4]; EEE 5 µM): 0.012
Gal9 response compared to reference ([4]; EEE 10 µM): 0.017
Gal9 response compared to reference ([5]; EEE 0.31 µM): 0.019
Gal9 response compared to reference ([5]; EEE 0.62 µM): 0.015
Gal9 response compared to reference ([5]; EEE 1.25 µM): 0.015
Gal9 response compared to reference ([5]; EEE 2.5 µM): 0.016
Gal9 response compared to reference ([5]; EEE 5 µM): 0.025
Gal9 response compared to reference ([5]; EEE 10 µM): 0.042
Luciferase expression compared to reference ([6]; EEE 5 µM): 65.259
Luciferase expression compared to reference ([6]; EEE 1-1.25 µM): 0.775
Luciferase expression compared to reference ([6]; EEE 2.5 - 3 µM): 1.207
Gal9 response compared to reference ([7]; EEE 0.31 µM): 0.004
Gal9 response compared to reference ([7]; EEE 0.62 µM): 0.005
Gal9 response compared to reference ([7]; EEE 1.25 µM): 0.004
Gal9 response compared to reference ([7]; EEE 2.5 µM): 0.005
Gal9 response compared to reference ([7]; EEE 5 µM): 0.005
Gal9 response compared to reference ([7]; EEE 10 µM): 0.008
Gal9 response compared to reference ([8]; EEE 0.31 µM): 0.013
Gal9 response compared to reference ([8]; EEE 0.62 µM): 0.015
Gal9 response compared to reference ([8]; EEE 1.25 µM): 0.013
Gal9 response compared to reference ([8]; EEE 2.5 µM): 0.013
Gal9 response compared to reference ([8]; EEE 5 µM): 0.017
Gal9 response compared to reference ([8]; EEE 10 µM): 0.087
Gal9 response compared to reference ([9]; EEE 0.31 µM): 0.007
Gal9 response compared to reference ([9]; EEE 0.62 µM): 0.008
Gal9 response compared to reference ([9]; EEE 1.25 µM): 0.009
Gal9 response compared to reference ([9]; EEE 2.5 µM): 0.009
Gal9 response compared to reference ([9]; EEE 5 µM): 0.010
Gal9 response compared to reference ([9]; EEE 10 µM): 0.011

COc1nn(C2CCNCC2)cc1Nc1ncc(C(F)(F)F)c(-c2c[nH]c3ccccc23)n1 [EEE24]
Gal9 response compared to reference ([1]; EEE 0.31 µM): 0.019
Gal9 response compared to reference ([1]; EEE 0.62 µM): 0.018
Gal9 response compared to reference ([1]; EEE 1.25 µM): 0.016
Gal9 response compared to reference ([1]; EEE 2.5 µM): 0.015
Gal9 response compared to reference ([1]; EEE 5 µM): 0.021
Gal9 response compared to reference ([1]; EEE 10 µM): 0.115
Gal9 response compared to reference ([2]; EEE 0.31 µM): 0.010
Gal9 response compared to reference ([2]; EEE 0.62 µM): 0.009
Gal9 response compared to reference ([2]; EEE 1.25 µM): 0.009
Gal9 response compared to reference ([2]; EEE 2.5 µM): 0.008
Gal9 response compared to reference ([2]; EEE 5 µM): 0.008
Gal9 response compared to reference ([2]; EEE 10 µM): 0.104
Gal9 response compared to reference ([3]; EEE 0.31 µM): 0.010
Gal9 response compared to reference ([3]; EEE 0.62 µM): 0.011
Gal9 response compared to reference ([3]; EEE 1.25 µM): 0.011
Gal9 response compared to reference ([3]; EEE 2.5 µM): 0.014
Gal9 response compared to reference ([3]; EEE 5 µM): 0.035
Gal9 response compared to reference ([3]; EEE 10 µM): 0.335
Gal9 response compared to reference ([4]; EEE 0.31 µM): 0.014
Gal9 response compared to reference ([4]; EEE 0.62 µM): 0.015
Gal9 response compared to reference ([4]; EEE 1.25 µM): 0.014
Gal9 response compared to reference ([4]; EEE 2.5 µM): 0.015
Gal9 response compared to reference ([4]; EEE 5 µM): 0.026
Gal9 response compared to reference ([4]; EEE 10 µM): 0.166
Gal9 response compared to reference ([5]; EEE 0.31 µM): 0.024
Gal9 response compared to reference ([5]; EEE 0.62 µM): 0.019
Gal9 response compared to reference ([5]; EEE 1.25 µM): 0.014
Gal9 response compared to reference ([5]; EEE 2.5 µM): 0.017
Gal9 response compared to reference ([5]; EEE 5 µM): 0.100
Gal9 response compared to reference ([5]; EEE 10 µM): 0.464
Luciferase expression compared to reference ([6]; EEE 5 µM): 7.300
Luciferase expression compared to reference ([6]; EEE 1-1.25 µM): 0.741
Luciferase expression compared to reference ([6]; EEE 2.5 - 3 µM): 1.920
Gal9 response compared to reference ([7]; EEE 0.31 µM): 0.005
Gal9 response compared to reference ([7]; EEE 0.62 µM): 0.005
Gal9 response compared to reference ([7]; EEE 1.25 µM): 0.004
Gal9 response compared to reference ([7]; EEE 2.5 µM): 0.004
Gal9 response compared to reference ([7]; EEE 5 µM): 0.008
Gal9 response compared to reference ([7]; EEE 10 µM): 0.207
Gal9 response compared to reference ([8]; EEE 0.31 µM): 0.016
Gal9 response compared to reference ([8]; EEE 0.62 µM): 0.015
Gal9 response compared to reference ([8]; EEE 1.25 µM): 0.010
Gal9 response compared to reference ([8]; EEE 2.5 µM): 0.013
Gal9 response compared to reference ([8]; EEE 5 µM): 0.070
Gal9 response compared to reference ([8]; EEE 10 µM): 0.703
Gal9 response compared to reference ([9]; EEE 0.31 µM): 0.010
Gal9 response compared to reference ([9]; EEE 0.62 µM): 0.010
Gal9 response compared to reference ([9]; EEE 1.25 µM): 0.011
Gal9 response compared to reference ([9]; EEE 2.5 µM): 0.016
Gal9 response compared to reference ([9]; EEE 5 µM): 0.019
Gal9 response compared to reference ([9]; EEE 10 µM): 0.174
